Patent publication US11739098B2 (BRISTOL-MYERS SQUIBB COMPANY, priority 2017, dated 2023)

Columns and labels:
Format in all cases: cell-based
human TLR7 = target: T1, human TLR7 (Homo sapiens, UniProt Q9NYK1); assay: TLR7 inhibition reporter assay (HEK-Blue cells, SEAP reporter, gardiquimod stimulation); settings: HEK-Blue cells overexpressing human TLR7, SEAP reporter, gardiquimod 7.5 μM
T1 construct: host or cells: HEK-Blue cells (HEK293-derived reporter line)
T1 sequence (Q9NYK1 27-1049): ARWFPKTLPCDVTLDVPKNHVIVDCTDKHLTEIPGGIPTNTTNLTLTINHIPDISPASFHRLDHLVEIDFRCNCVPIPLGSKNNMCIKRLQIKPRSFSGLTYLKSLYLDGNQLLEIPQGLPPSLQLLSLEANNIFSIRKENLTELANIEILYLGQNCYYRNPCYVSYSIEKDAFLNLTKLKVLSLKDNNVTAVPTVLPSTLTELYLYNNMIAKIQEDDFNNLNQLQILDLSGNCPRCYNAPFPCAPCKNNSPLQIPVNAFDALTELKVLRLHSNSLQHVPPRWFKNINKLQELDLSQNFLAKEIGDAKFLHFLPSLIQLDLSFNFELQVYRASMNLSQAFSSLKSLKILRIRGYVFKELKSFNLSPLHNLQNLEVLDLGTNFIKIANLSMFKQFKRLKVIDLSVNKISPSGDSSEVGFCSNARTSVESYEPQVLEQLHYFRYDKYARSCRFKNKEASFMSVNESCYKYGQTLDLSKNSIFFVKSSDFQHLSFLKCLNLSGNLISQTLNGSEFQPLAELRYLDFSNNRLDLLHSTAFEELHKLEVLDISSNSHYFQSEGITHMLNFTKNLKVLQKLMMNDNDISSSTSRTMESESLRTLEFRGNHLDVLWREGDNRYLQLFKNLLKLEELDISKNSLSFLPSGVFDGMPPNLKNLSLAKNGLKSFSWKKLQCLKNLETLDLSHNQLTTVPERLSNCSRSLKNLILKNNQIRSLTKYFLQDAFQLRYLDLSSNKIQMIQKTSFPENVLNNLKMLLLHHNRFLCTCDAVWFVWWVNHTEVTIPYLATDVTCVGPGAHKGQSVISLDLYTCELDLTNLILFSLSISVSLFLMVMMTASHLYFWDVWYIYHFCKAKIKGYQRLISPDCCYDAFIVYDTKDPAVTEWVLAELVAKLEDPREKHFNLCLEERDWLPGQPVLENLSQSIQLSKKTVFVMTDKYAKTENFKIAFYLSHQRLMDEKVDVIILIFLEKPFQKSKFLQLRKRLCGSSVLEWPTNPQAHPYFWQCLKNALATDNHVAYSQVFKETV
Procedure, shortened: (§1)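 Read-out is SEAP activity in HEK-Blue detection medium after 22 h at 37 °C, converted to percent inhibition against agonist-plus-DMSO and reference-inhibitor controls. Cells saw compound (0.05 nM–50 μM, 30 min, room temperature) before gardiquimod 7.5 μM, R848 15.9 μM or ODN2006 5 nM for TLR7, TLR8 and TLR9, respectively.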

human TLR8 = target: T2, human TLR8 (Homo sapiens, UniProt Q9NR97); assay: TLR8 inhibition reporter assay (HEK-Blue cells, SEAP reporter, R848 stimulation); settings: HEK-Blue cells overexpressing human TLR8, SEAP reporter, R848 15.9 μM
T2 construct: host or cells: HEK-Blue cells (HEK293-derived reporter line)
T2 sequence (Q9NR97 27-1041): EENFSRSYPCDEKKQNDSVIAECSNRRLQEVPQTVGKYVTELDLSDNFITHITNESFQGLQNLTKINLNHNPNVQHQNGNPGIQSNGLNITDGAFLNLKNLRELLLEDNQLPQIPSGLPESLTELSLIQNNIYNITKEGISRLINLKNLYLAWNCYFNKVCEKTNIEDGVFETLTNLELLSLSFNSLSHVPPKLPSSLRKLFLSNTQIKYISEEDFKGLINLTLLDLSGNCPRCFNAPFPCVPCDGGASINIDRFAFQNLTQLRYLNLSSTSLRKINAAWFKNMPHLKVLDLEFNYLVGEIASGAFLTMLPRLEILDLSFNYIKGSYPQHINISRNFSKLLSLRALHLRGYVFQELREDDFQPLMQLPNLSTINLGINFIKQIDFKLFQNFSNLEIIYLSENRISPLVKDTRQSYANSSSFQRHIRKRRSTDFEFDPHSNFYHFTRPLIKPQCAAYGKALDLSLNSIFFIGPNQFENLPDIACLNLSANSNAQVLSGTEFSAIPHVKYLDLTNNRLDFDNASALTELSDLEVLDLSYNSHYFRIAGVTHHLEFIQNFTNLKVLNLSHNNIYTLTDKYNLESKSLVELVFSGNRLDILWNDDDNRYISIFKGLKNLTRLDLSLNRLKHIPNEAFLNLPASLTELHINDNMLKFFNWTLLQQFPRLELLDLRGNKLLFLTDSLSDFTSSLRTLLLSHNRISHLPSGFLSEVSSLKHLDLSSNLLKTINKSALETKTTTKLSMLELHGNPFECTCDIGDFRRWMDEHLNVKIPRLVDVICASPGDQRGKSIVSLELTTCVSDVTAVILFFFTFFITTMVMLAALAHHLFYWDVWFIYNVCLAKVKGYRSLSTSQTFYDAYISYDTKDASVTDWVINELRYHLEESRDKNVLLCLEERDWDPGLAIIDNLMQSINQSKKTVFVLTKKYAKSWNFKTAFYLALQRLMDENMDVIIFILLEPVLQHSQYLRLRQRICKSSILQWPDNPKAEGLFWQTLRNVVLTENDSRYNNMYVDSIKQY
Procedure, shortened: as §1

human TLR9 = target: T3, human TLR9 (Homo sapiens, UniProt Q9NR96); assay: TLR9 inhibition reporter assay (HEK-Blue cells, SEAP reporter, ODN2006 stimulation); settings: HEK-Blue cells overexpressing human TLR9, SEAP reporter, ODN2006 5 nM
T3 construct: host or cells: HEK-Blue cells (HEK293-derived reporter line)
T3 sequence (Q9NR96 26-1032): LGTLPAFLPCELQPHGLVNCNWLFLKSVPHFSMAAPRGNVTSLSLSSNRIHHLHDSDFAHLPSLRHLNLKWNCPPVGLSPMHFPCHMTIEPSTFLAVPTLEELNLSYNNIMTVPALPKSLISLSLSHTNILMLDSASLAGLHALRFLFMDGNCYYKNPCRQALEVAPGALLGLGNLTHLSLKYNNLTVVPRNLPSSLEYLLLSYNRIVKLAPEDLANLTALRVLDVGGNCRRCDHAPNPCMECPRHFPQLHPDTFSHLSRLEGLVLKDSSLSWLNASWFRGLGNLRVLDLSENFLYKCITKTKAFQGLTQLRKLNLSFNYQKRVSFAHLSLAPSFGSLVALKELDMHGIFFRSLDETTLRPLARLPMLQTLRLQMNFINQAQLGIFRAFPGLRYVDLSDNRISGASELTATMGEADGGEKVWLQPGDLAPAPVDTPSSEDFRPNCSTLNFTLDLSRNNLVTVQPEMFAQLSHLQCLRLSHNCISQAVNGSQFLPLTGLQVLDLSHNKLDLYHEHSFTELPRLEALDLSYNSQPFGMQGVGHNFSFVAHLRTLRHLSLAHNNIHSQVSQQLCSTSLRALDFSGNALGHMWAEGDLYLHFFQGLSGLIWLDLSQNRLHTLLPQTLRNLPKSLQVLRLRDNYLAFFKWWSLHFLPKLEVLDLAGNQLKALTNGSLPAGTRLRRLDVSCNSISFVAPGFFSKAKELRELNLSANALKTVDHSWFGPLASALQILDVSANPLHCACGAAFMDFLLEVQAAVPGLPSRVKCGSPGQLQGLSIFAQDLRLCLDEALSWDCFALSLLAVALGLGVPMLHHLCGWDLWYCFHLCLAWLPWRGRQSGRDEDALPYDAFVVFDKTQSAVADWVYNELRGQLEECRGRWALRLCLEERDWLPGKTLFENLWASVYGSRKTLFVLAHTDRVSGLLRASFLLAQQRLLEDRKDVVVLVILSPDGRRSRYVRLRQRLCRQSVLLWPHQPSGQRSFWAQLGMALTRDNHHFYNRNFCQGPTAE
Procedure, shortened: as §1

Structure (SMILES): CCN(CC)C(=O)C1CCCN(CC(=O)N2CCC(c3ccc4[nH]c(-c5ccnc6[nH]ccc56)c(C(C)C)c4c3)CC2)C1 (stereo not drawn) [Example 569, N,N-diethyl-1-(2-(4-(3-isopropyl-2-(1H-pyrrolo[2,3-b]pyridin-4-yl)-1H-indol-5-yl)piperidin-1-yl)-2-oxoethyl)piperidine-3-carboxamide]
- IC50 (human TLR7): < 100 nM
- IC50 (human TLR8): < 100 nM
- IC50 (human TLR9): 100 to 1000 nM

Structure (SMILES): CC(=O)NCCNCC(=O)N1CCC(c2ccc3[nH]c(-c4ccnc5[nH]ncc45)c(C(C)C)c3c2)CC1 [Example 573, N-(2-((2-(4-(3-isopropyl-2-(1H-pyrazolo[3,4-b]pyridin-4-yl)-1H-indol-5-yl)piperidin-1-yl)-2-oxoethyl)amino)ethyl)acetamide]
- IC50 (human TLR7): < 100 nM
- IC50 (human TLR8): < 100 nM
- IC50 (human TLR9): 1000 to 50000 nM

Structure (SMILES): CCc1c(-c2cnc3cn[nH]c3c2)[nH]c2ccc(C3CCN(C4CCN(C(C)C)CC4)CC3)cc12 [Example 836, 6-(3-ethyl-5-(1′-isopropyl-[1,4′-bipiperidin]-4-yl)-1H-indol-2-yl)-1H-pyrazolo[4,3-b]pyridine]
- IC50 (human TLR7): < 100 nM
- IC50 (human TLR8): < 100 nM
- IC50 (human TLR9): < 100 nM

Structure (SMILES): Cc1cc(-c2[nH]c3ccc(C4CCN(C(=O)CN5C[C@H]6CC[C@@H](C5)O6)CC4)cc3c2C(C)C)cn2nnnc12 [Example 484, 2-((1R,5S)-8-oxa-3-azabicyclo[3.2.1]octan-3-yl)-1-(4-(3-isopropyl-2-(8-methyltetrazolo[1,5-a]pyridin-6-yl)-1H-indol-5-yl)piperidin-1-yl)ethan-1-one]
- IC50 (human TLR7): < 100 nM
- IC50 (human TLR8): < 100 nM
- IC50 (human TLR9): 1000 to 50000 nM

Structure (SMILES): CNCCN1CCC(c2ccc3[nH]c(-c4ccc5nccn5c4)c(C(C)C)c3c2)CC1 [Example 680, 2-(4-(2-(imidazo[1,2-a]pyridin-6-yl)-3-isopropyl-1H-indol-5-yl)piperidin-1-yl)-N-methylethan-1-amine]
- IC50 (human TLR7): < 100 nM
- IC50 (human TLR8): < 100 nM
- IC50 (human TLR9): 100 to 1000 nM

Structure (SMILES): CC(C)c1c(-c2ccn3ncnc3c2)[nH]c2ccc(C3CCNCC3)cc12 [Example 197, 7-(3-isopropyl-5-(piperidin-4-yl)-1H-indol-2-yl)-[1,2,4]triazolo[1,5-a]pyridine]
- IC50 (human TLR7): < 100 nM
- IC50 (human TLR8): < 100 nM
- IC50 (human TLR9): 1000 to 50000 nM

Structure (SMILES): CC(C)c1c(-c2ccnc3[nH]ncc23)[nH]c2ccc(C3CCN(C(=O)CNCC(C)(C)N4CCOCC4)CC3)cc12 [Example 580, 1-(4-(3-isopropyl-2-(1H-pyrazolo[3,4-b]pyridin-4-yl)-1H-indol-5-yl)piperidin-1-yl)-2-((2-methyl-2-morpholinopropyl)amino)ethan-1-one]
- IC50 (human TLR7): < 100 nM
- IC50 (human TLR8): < 100 nM
- IC50 (human TLR9): 1000 to 50000 nM

Structure (SMILES): CC(C)c1c(-c2ccn3nncc3c2)[nH]c2ccc(C3CCN(C(=O)CN(C)C)CC3)cc12 [Example 465, 1-(4-(2-([1,2,3]triazolo [1,5-a]pyridin-5-yl)-3-isopropyl-1H-indol-5-yl)piperidin-1-yl)-2-(dimethylamino)ethan-1-one]
- IC50 (human TLR7): < 100 nM
- IC50 (human TLR8): 100 to 1000 nM
- IC50 (human TLR9): 1000 to 50000 nM

Structure (SMILES): CCc1c(-c2ccnc3c(N)n[nH]c23)[nH]c2ccc(C3CCNCC3)cc12 [Example 238, 7-(3-ethyl-5-(piperidin-4-yl)-1H-indol-2-yl)-1H-pyrazolo[4,3-b]pyridin-3-amine]
- IC50 (human TLR7): < 100 nM
- IC50 (human TLR8): 100 to 1000 nM
- IC50 (human TLR9): 1000 to 50000 nM

Structure (SMILES): CNCCN1CCC(c2ccc3[nH]c(-c4ccnc5[nH]ccc45)c(C)c3c2)CC1 [Example 668, N-methyl-2-(4-(3-methyl-2-(1H-pyrrolo[2,3-b]pyridin-4-yl)-1H-indol-5-yl)piperidin-1-yl)ethan-1-amine]
- IC50 (human TLR7): 100 to 1000 nM
- IC50 (human TLR8): < 100 nM
- IC50 (human TLR9): 100 to 1000 nM

Structure (SMILES): CC(C)c1c(-c2ccnc3[nH]ncc23)[nH]c2ccc(C3CCN(Cc4ccccc4OCCCN(C)C)CC3)cc12 [Example 921, 3-(2-((4-(3-isopropyl-2-(1H-pyrazolo[3,4-b]pyridin-4-yl)-1H-indol-5-yl)piperidin-1-yl)methyl)phenoxy)-N,N-dimethylpropan-1-amine]
- IC50 (human TLR7): 100 to 1000 nM
- IC50 (human TLR8): < 100 nM
- IC50 (human TLR9): 100 to 1000 nM

Structure (SMILES): CCOc1cc(-c2[nH]c3ccc(C4CCN(CC(=O)N(C)C)CC4)cc3c2C(C)C)cc2nc(C)nn12 [Example 404, 2-(4-(2-(5-ethoxy-2-methyl-[1,2,4]triazolo[1,5-a]pyridin-7-yl)-3-isopropyl-1H-indol-5-yl)piperidin-1-yl)-N,N-dimethylacetamide]
- IC50 (human TLR7): < 100 nM
- IC50 (human TLR8): < 100 nM
- IC50 (human TLR9): 1000 to 50000 nM

Structure (SMILES): CNC(=O)CN1CCC(c2ccc3[nH]c(-c4cc(C)n5nc(C)cc5c4)c(C(C)C)c3c2)CC1 [Example 419, 2-(4-(2-(2,7-dimethylpyrazolo[1,5-a]pyridin-5-yl)-3-isopropyl-1H-indol-5-yl)piperidin-1-yl)-N-methylacetamide]
- IC50 (human TLR7): < 100 nM
- IC50 (human TLR8): 100 to 1000 nM
- IC50 (human TLR9): 1000 to 50000 nM

Structure (SMILES): Cc1c(-c2ccnc3c2ccn3C)[nH]c2ccc(C3CCN(C4CCN(CC(C)C)CC4)CC3)cc12 [Example 843, 4-(5-(1′-isobutyl-[1,4′-bipiperidin]-4-yl)-3-methyl-1H-indol-2-yl)-1-methyl-1H-pyrrolo[2,3-b]pyridine]
- IC50 (human TLR7): 1000 to 50000 nM
- IC50 (human TLR8): < 100 nM
- IC50 (human TLR9): < 100 nM
